Activity calls are given as the source filed them.
Columns and labels:
[1] = biological target: 1-acylglycerol-3-phosphate O-acyltransferase ABHD5/Perilipin-5 (Homo sapiens, UniProt Q00G26+Q8WTS1); test: Luminescence-based biochemical high throughput dose response assay for inhibitors of the interaction of the lipase co-activator protein, abhydrolase domain containing 5 (ABHD5) with perilipin-5 (MLDP; PLIN5) (2K validation set). [Related pubchem assays (depositor defined):AID493035, AID493241]
Perilipin-1/ABHD5 = Perilipin-1/ABHD5 (Homo sapiens, UniProt O60240+Q8WTS1); test: Luminescence-based biochemical high throughput dose response assay for inhibitors of the interaction of the lipase co-activator protein, abhydrolase domain containing 5 (ABHD5) with perilipin-1 (PLIN1) (2K validation set). [Related pubchem assays (depositor defined):AID493027, AID493057]
[2] = biological target: Heat shock protein HSP 90-alpha (Homo sapiens, UniProt P07900); assay type: functional, organism-based
[3] = NIH-3T3 fibroblast cytotoxicity, dose response, cytotoxicity control, cell-based, fluorescence, Alamar Blue, secondary assay (AID 2327); assay type: functional;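 further: NIH-3T3 mouse fibroblasts cultured with fluconazole at 8 µg/mL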
[4] = C. albicans growth with fluconazole, confirmation, fluorescence, retest (AID 2467); assay type: functional, cell-based
[5] = biological target: T1, Serine/threonine-protein phosphatase (Candida dubliniensis (strain CD36 / CBS 7987 / NCPF 3949 / NRRLY-17841) (Yeast), UniProt B9W6M3); test: calcineurin pathway inhibitors in yeast reporter, dose response, S. cerevisiae, CDRE-lacZ, luminescence, secondary (AID 2388); assay type: functional, cell-based;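 further: yeast reporter cells carrying a calcineurin-responsive lacZ construct stimulated with calcium chloride; luminescent beta-galactosidase reporter signal in whole cells rather than isolated phosphatase activity; potency for inhibition where a drop in reporter signal means calcineurin blockade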
T1 sequence (B9W6M3 whole entry): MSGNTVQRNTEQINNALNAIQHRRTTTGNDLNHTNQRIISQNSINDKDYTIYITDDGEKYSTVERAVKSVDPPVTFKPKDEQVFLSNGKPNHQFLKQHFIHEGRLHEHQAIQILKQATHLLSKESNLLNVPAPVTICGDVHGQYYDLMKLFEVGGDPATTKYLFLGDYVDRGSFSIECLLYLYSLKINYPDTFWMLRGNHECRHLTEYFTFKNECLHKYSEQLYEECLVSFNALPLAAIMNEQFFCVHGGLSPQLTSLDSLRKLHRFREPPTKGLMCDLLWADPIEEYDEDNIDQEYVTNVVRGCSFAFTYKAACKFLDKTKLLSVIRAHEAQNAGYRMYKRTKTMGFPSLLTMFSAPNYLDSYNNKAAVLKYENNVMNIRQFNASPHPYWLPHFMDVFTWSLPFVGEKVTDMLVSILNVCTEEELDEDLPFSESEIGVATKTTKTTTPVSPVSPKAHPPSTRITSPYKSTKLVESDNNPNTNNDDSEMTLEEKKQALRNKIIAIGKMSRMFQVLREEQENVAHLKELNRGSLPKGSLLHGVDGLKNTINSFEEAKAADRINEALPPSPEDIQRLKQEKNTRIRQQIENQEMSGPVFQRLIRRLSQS

[6] = Cytotoxicity screening for potential Inhibitors of Bacterial Capsule Biogenesis. [Related pubchem assays (depositor defined):AID488970]; assay type: functional
[7] = biological target: ATP-dependent molecular chaperone HSP82 (Candida albicans (strain WO-1) (Yeast), UniProt C4YTQ8); test: loss of DOC-induced GRE-beta-galactosidase reporter signal, dose response, Hsp90 inhibitor project, S. cerevisiae, luminescence (AID 2400); assay type: functional, cell-based;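 further: beta-galactosidase luminescence from glucocorticoid response element reporter as proxy for Hsp90 function; inhibitor potency where signal loss means Hsp90 inhibition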
Prothrombin = Prothrombin (Homo sapiens, UniProt P00734); test: Thrombin 1536 HTS Dose Response Confirmation. [Related pubchem assays: 1046 (Thrombin 1536 HTS; hits were confirmed in this assay)]; assay type: functional
[8] = biological target: Neurotensin receptor type 1 (Homo sapiens, UniProt P30989); assay type: functional;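 further: Image-based confirmatory dose-response assay measuring agonist activity at NTR1; NTR1-expressing U2OS osteosarcoma cells imaged for beta-arrestin GFP spot formation; agonist potency where compounds increase beta-arrestin recruitment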
Neurotensin receptor type 1, sequence (P30989 whole entry): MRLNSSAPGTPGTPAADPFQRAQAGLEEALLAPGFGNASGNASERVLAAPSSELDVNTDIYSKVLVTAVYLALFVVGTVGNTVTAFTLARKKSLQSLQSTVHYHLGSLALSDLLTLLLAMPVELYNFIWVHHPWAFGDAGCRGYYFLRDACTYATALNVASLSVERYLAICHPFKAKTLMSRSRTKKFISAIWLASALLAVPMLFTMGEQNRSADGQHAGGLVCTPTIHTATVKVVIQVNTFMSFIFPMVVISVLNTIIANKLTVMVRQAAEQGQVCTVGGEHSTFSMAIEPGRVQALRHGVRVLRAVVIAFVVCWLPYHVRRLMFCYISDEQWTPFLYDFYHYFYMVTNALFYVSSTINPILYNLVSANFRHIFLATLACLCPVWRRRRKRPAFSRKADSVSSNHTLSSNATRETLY

[9] = biological target: T2, Voltage-gated N-type calcium channel alpha-1B subunit/Amyloid beta A4 precursor protein-binding family A member 1 (Homo sapiens, UniProt Q00975+Q02410); test: disruptors of Mint-PDZ/N-type channel peptide interaction – biochemical, HTRF, set 2, SAR follow-up (AID 434980); assay type: functional
T2 sequence (Q00975 whole entry): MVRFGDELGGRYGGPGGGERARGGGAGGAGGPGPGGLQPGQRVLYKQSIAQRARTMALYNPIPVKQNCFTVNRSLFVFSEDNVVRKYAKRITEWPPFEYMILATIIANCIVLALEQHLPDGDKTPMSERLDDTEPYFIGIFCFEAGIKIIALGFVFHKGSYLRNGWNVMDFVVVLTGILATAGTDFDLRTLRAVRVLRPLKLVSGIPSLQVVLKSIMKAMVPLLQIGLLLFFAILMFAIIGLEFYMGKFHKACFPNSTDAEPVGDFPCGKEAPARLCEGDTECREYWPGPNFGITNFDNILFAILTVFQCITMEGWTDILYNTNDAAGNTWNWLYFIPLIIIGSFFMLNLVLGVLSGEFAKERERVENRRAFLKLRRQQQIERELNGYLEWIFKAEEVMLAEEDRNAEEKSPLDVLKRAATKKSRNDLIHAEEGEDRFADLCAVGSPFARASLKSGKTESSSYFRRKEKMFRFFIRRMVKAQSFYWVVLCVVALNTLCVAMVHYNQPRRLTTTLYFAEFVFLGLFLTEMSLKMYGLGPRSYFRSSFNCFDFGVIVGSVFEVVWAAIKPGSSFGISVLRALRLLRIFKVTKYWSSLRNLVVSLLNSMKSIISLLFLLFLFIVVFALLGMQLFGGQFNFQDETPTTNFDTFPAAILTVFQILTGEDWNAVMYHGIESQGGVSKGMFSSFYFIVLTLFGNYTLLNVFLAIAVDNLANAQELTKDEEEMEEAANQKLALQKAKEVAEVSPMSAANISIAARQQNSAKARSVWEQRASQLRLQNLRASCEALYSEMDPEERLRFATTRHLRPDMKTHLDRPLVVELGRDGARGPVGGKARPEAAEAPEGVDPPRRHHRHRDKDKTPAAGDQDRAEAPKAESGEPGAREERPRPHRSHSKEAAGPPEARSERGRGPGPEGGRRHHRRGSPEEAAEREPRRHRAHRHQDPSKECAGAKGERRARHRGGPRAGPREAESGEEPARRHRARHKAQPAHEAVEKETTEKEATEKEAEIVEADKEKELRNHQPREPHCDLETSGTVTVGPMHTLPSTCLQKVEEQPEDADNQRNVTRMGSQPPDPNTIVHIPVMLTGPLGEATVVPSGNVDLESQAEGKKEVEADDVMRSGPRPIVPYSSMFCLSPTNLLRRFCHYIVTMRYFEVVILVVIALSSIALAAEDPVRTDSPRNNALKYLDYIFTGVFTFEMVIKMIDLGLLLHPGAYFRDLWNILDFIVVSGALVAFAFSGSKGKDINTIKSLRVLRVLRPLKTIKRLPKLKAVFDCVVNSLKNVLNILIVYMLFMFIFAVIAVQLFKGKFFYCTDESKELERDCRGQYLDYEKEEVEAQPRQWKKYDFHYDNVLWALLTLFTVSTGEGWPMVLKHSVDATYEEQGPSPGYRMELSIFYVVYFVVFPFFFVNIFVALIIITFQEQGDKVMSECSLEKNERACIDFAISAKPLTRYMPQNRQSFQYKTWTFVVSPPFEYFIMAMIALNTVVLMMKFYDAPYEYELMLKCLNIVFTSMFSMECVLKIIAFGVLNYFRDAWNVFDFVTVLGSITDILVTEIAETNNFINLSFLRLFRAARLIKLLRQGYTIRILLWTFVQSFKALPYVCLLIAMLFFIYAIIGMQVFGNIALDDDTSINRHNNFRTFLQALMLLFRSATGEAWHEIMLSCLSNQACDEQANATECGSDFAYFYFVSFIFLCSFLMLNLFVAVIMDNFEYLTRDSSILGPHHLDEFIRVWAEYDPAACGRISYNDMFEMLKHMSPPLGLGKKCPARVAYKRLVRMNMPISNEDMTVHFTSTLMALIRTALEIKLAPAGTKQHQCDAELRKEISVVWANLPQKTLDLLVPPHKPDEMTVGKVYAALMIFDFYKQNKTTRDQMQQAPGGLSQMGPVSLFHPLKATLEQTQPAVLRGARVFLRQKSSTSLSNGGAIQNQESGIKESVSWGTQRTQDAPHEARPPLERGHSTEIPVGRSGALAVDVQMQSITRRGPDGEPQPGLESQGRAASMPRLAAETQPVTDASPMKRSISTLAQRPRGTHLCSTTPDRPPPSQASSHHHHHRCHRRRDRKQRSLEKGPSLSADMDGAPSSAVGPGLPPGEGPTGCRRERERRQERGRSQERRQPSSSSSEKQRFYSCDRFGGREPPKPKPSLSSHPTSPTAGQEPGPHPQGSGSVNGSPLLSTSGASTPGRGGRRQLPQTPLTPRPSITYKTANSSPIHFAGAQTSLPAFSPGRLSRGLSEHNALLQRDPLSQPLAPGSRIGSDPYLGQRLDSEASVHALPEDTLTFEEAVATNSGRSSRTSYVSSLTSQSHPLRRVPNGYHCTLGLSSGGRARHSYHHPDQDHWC
T2 sequence (Q02410 whole entry): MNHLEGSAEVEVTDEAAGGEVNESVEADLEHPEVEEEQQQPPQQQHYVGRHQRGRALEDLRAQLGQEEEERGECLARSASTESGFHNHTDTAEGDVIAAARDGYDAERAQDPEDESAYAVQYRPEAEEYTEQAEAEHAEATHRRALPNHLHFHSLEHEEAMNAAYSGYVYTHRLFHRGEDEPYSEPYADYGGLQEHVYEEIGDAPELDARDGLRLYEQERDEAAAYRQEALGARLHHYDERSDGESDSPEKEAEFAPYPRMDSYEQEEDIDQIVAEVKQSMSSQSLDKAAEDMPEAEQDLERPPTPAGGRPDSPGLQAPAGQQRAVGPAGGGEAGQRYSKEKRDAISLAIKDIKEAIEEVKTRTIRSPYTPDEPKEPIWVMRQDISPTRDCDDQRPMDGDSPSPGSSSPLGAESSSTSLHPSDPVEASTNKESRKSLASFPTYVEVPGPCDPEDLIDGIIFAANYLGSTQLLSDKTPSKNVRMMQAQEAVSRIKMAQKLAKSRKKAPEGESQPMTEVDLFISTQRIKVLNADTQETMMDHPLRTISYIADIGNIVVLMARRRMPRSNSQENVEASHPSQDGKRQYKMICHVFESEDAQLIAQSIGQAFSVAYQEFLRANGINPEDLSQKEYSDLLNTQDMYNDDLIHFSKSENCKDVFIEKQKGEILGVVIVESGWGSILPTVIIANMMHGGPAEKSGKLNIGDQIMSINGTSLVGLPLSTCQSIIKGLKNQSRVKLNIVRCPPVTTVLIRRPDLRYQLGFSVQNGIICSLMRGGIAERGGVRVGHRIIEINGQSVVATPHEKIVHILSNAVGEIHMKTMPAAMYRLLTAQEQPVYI

[10] = biological target: T2, Voltage-gated N-type calcium channel alpha-1B subunit/Amyloid beta A4 precursor protein-binding family A member 1; test: disruptors of Mint-PDZ/N-type channel peptide interaction – biochemical, HTRF, SAR follow-up (AID 2489); assay type: functional
[11] = biological target: T3, Calpain-2 catalytic subunit (Sus scrofa, UniProt P43367); test: pig calpain II inhibitor potency, dose response, biochemical, fluorogenic peptide substrate (AID 1420); assay type: functional
T3 sequence (P43367 whole entry): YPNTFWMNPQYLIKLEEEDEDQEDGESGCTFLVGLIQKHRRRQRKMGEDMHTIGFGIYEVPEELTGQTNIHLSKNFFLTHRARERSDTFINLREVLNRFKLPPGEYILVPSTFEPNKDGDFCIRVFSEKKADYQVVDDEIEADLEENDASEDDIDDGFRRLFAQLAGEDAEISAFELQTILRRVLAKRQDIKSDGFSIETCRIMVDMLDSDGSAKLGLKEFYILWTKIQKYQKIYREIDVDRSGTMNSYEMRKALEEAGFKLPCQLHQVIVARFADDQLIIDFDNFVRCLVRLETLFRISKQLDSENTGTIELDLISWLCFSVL

Hexokinase HKDC1 = Hexokinase HKDC1 (Homo sapiens, UniProt Q2TB90); test: HKDC1 hexokinase inhibitors, dose response, biochemical, W721R variant (AID 504729); assay type: functional
[12] = biological target: Eukaryotic translation initiation factor 4E (Mus musculus, UniProt P63073); test: eIF4E–eIF4G protein interaction inhibitors, dose response, biochemical, TR-FRET (AID 855); assay type: functional;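 further: potency for disrupting eIF4E binding to eIF4GI seen as loss of FRET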
Eukaryotic translation initiation factor 4E, sequence (P63073 whole entry): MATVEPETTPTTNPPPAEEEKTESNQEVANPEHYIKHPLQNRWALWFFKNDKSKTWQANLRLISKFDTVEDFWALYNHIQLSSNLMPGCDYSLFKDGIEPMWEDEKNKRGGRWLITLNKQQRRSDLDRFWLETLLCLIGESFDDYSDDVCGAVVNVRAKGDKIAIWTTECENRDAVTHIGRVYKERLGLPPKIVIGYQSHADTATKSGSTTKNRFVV

[13] = biological target: Potassium voltage-gated channel subfamily KQT member 2 (Rattus norvegicus, UniProt O88943); test: retigabine-insensitive KCNQ2 potentiators, concentration-response, dose response, cell-based, retigabine-insensitive compounds (AID 2654); assay type: functional
[14] = inhibition of K1F phage lysis, E. coli UTI89, bacterial capsule biogenesis inhibitors, alamar blue (AID 488966); assay type: functional
[15] = THP-1 cell cytotoxicity, dose response, cytotoxicity control for non-replicating M. tuberculosis project (AID 489025); assay type: functional
[16] = HepG2 cell cytotoxicity, dose response, cytotoxicity control for non-replicating M. tuberculosis project (AID 489018); assay type: functional; settings: Mycobacterium tuberculosis
[17] = Vero E6 cell cytotoxicity, dose response, cytotoxicity control for non-replicating M. tuberculosis project, secondary assay (AID 492998); assay type: functional, VeroE6; settings: Vero C1008
cells = assay type: functional
Saccharomyces cerevisiae = test: NALP1 inhibitor project selectivity study, Caspase-1/ASC signal blockade IC50 in S. cerevisiae (AID 488863); assay type: functional, organism-based
[18] = biological target: NACHT, LRR and PYD domains-containing protein 1 (Homo sapiens, UniProt Q9C000); test: NALP1 inhibitors in yeast, dose response, luminescent (AID 488860); assay type: functional
[19] = biological target: Cyclin-dependent kinase 5/CDK5 activator 1 (Homo sapiens, UniProt Q00535); test: CDK5/p35 kinase inhibitors, dose response, biochemical, cherry-picked samples, set 2 (AID 504545)
[20] = biological target: T4, Fructose-bisphosphate aldolase (Mycobacterium tuberculosis, UniProt P9WQA3); test: Fluorescence-based biochemical high throughput dose response assay for inhibitors of the fructose-bisphosphate aldolase (FBA) of M. tuberculosis.; assay type: functional
T4 sequence (P9WQA3 whole entry): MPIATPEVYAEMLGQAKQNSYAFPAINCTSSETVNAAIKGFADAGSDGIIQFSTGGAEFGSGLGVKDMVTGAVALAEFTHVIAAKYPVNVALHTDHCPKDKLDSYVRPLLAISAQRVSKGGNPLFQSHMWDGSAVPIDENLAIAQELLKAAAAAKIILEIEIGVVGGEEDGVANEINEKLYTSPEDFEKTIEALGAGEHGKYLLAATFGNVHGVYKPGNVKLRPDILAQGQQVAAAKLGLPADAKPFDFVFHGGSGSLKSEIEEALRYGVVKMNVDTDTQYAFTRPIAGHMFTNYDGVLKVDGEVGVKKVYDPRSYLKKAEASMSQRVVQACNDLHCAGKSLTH

[21] = biological target: NACHT, LRR and PYD domains-containing protein 3 (Homo sapiens, UniProt Q96P20); test: NALP3 inhibitors in yeast, dose response, luminescent (AID 488799); assay type: functional
[22] = biological target: Voltage-dependent T-type calcium channel subunit alpha-1H (Homo sapiens, UniProt O95180); test: Cav3.2 T-type channel inhibitors, cell-based, synthetic library set 1, calcium flux (AID 493022); assay type: functional
[23] = A small molecule screen for inhibitors of the PhoP region in Salmonella typhi (3) using purified and synthesized compounds. [Related pubchem assays (depositor defined):AID1850, AID1864, AID1985, AID2252, AID2384, AID2612, AID2811, AID449743, AID463179]; assay type: functional
Wee1-like protein kinase = Wee1-like protein kinase (Homo sapiens, UniProt P30291); test: G2/M cell cycle arrest in HeLa, late-stage follow-up, mechanism study for Wee1 degradation inhibitor project, FACS, panel member Wee1 Degradation (AID 2088)
[24] = biological target: G2/mitotic-specific cyclin-B1 (Homo sapiens, UniProt P14635); test: G2/M cell cycle arrest in HeLa, late-stage follow-up, mechanism study for Wee1 degradation inhibitor project, FACS, panel member Cyclin B Degradation (AID 2088)
G2/mitotic-specific cyclin-B1, sequence (P14635 whole entry): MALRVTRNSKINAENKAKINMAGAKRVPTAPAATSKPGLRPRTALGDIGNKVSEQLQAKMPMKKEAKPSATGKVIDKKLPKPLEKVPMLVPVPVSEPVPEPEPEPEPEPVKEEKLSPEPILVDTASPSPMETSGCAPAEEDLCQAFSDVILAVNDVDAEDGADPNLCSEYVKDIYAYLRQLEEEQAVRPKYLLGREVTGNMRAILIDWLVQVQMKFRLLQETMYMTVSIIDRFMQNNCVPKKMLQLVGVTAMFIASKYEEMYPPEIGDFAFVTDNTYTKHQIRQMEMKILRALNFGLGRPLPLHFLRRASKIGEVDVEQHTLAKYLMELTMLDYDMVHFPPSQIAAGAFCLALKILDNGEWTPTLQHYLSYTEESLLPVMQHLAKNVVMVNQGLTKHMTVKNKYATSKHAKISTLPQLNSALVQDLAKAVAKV

[25] = biological target: Melanin-concentrating hormone receptor 1 (Homo sapiens, UniProt Q99705); test: Late-stage fluorescence-based counterscreen for antagonists of the G-protein coupled receptor 7 (GPR7): cell-based dose response assay to identify antagonists of the melanin-concentrating hormone receptor 1 (MCHR1). [Related pubchem assays (depositor defined):AID1861, AID1880, AID1952, AID2148, AID2251, AID2257, AID485339]; assay type: functional;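 further: stimulated with 30 nM MCH peptide agonist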
[26] = biological target: T5, Neuropeptides B/W receptor type 1 (Homo sapiens, UniProt P48145); test: GPR7 antagonist potency, late-stage follow-up, cell-based, fluorescence, dose response (AID 463251); assay type: functional
T5 sequence (P48145 whole entry): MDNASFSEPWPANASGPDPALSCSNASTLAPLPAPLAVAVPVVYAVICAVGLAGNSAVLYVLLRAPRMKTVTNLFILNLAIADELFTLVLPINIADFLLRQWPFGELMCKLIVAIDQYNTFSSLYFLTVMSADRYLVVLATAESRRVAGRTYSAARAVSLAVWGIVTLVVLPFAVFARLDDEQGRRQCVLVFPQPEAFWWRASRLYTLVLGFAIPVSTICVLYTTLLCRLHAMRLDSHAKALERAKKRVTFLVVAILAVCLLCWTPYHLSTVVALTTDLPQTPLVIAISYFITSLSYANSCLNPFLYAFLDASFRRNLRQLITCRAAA

[27] = cytotoxicity in NIH/3T3 mouse fibroblasts, dose response, cytotoxicity control, cell-based, mouse embryonic fibroblasts, dry powder, set 2 (AID 493247); assay type: functional; settings: Fibroblast
Trypanosoma cruzi = test: growth inhibition of intracellular Trypanosoma cruzi, dose response, cell-based, plate reader, dry powder, set 3 (AID 493197); assay type: functional
Protein Rev = Protein Rev (Human immunodeficiency virus type 1 group M subtype B (isolate HXB2)(HIV-1), UniProt P04618); test: inhibitors of Rev binding to RRE RNA, dose response, biochemical, fluorescence polarization, HIV-1 (AID 434976); design: species or system Human immunodeficiency virus 1
Protein Rev, sequence (P04618 whole entry): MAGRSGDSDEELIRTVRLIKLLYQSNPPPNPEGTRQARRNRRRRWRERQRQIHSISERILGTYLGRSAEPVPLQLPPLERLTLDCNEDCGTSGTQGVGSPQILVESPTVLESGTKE

[28] = biological target: Female germline-specific tumor suppressor gld-1 (Caenorhabditis elegans, UniProt Q17339); test: inhibitors of GLD-1 binding to TGE RNA, dose response, biochemical, fluorescence polarization, C. elegans (AID 2802);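 further: fluorescence polarization of labeled TGE RNA bound by purified gld-1 protein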
Female germline-specific tumor suppressor gld-1, sequence (Q17339 whole entry): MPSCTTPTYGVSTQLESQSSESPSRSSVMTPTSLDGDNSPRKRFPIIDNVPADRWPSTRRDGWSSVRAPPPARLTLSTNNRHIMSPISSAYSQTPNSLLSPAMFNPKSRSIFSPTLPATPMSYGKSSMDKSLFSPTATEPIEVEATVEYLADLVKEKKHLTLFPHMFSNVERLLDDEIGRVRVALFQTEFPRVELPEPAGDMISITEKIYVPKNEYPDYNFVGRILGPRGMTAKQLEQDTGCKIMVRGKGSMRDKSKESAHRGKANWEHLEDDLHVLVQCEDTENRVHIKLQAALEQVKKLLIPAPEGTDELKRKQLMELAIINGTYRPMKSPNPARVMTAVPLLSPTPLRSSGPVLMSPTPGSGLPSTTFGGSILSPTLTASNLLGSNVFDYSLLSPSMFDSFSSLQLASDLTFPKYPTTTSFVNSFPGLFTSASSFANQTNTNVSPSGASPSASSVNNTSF

CC(C)N1C(=O)/C(=C\c2nc(O)c3ccccc3n2)c2ccccc21
IC50 [1]: 7.59 µM (active)
IC50 (Perilipin-1/ABHD5): 6.84 µM (active)
AC50 [2]: 5.37 µM (active)

O=C(NCc1cc([N+](=O)[O-])ccc1O)c1cccnc1Sc1ccccc1Cl
EC50 [3]: > 150 µM (inactive)
EC50 [4]: 0.848 µM (active)
EC50 [5]: > 180 µM (inactive)
CC50 [6]: > 100 µM (active)
EC50 [7]: > 150 µM (inactive)

CCN1C(=O)/C(=C/N(C(C)=O)c2ccccc2)N(c2ccccc2)C1=S
IC50 (Prothrombin): > 50 µM (not active)
EC50 [8]: 18 µM (active)

CC(/C=C/c1ccco1)=NNC(=O)c1cccnc1
IC50 [9]: 6.99 µM (active)
IC50 [10]: 21.4 µM (active)

Cc1cc(C)n2nc(SCc3nnc(SCc4ccccc4Cl)s3)nc2n1
IC50 [11]: 9.87 µM (not active)
IC50 (Hexokinase HKDC1): 18.8 µM (active)

COc1ccc(-n2c(Cc3cccn3C)nnc2SCC(=O)Nc2cccc(F)c2)cc1
IC50 [12]: > 64 µM (inactive)

S=C(Nc1cccnc1)Nc1cccc(Cl)c1
EC50 [13]: 9.33 µM (active)

CC12CC3CC(C)(C1)CC(CN)(C3)C2
IC50 [14]: > 300 µM (active)

O=C(NNC(=O)c1ccccn1)c1cccc([N+](=O)[O-])c1
CC50 [15]: 26.7 µM (active)
CC50 [16]: > 20 µM (active)
CC50 [17]: 9.98 µM (active)
IC50 (cells): 10.9 µM (active)

Cc1ccc(NC(=O)CNc2ccc(OC(C)C)cc2)cc1
IC50 (Saccharomyces cerevisiae): 42.6 µM (active)
IC50 [18]: 22.6 µM (active)

CNS(=O)(=O)c1ccc2c3c(cccc13)C(=O)N2
AC50 [19]: 32.6 µM (active)
IC50 [20]: 1.6 µM (active)

COc1c(OC(C)=O)c(=O)n2c3ccccc3c3ccnc1c32
IC50 [21]: 1.58 µM (active)

CC(Oc1ccccc1)C(=O)Nc1nnc(-c2ccc(F)cc2)o1 (stereo unspecified)
EC50 [22]: 10 µM (active)

Cc1cccc(NC(=O)N2CCCN(Cc3ccccc3F)C2)c1
IC50 [23]: > 150 µM (active)

Cc1ccc(NC(=O)COc2cc(=O)n(C)c3ccccc23)nc1
EC50 (Wee1-like protein kinase): > 49.7 µM (inactive)
EC50 [24]: > 49.7 µM (inactive)

O=C(C1CCCCN1Cc1ccc(Cl)c(Cl)c1)N1CCN(c2ccc([N+](=O)[O-])cc2)CC1 (stereo unspecified)
IC50 [25]: 4.6 µM (active)
IC50 [26]: 2.3 µM (active)

O=C(COc1ccc2ccccc2c1)N/N=C/c1ccc([N+](=O)[O-])o1
AC50 [27]: 22.3 µM (active)
AC50 (Trypanosoma cruzi): 0.837 µM (active)

C=CCc1cccc(/C=N/n2c(C)nnc2C)c1O
IC50 (Protein Rev): > 8.39 µM (active)
IC50 [28]: 8.19 µM (active)
